Legend:
[1] = Pharmacokinetic study in sham and myocardial ischemia model rats after a single oral dose of QSKL (UHPLC-psMS/MS of plasma, non-compartmental analysis); conditions: for AUC(0-inf): AUC0–∞
Protocol: (§1) Twelve male Spargue-Dawley rats (200 ± 20 g) were supplied by Vital River Laboratory Animal Technology Co. Ltd. (Beijing, China). […] The rats were acclimated under a humidity (50%) controlled room at 22–25 °C with a 12 h light-dark cycle, and standard diet and water were provided ad libitum for one week.
(§2) Afterwards, all rats were randomly divided into two groups, namely sham and model groups. The myocardial ischemia model was simulated by left anterior descending (LAD) coronary artery ligation [12], whilst the rats belonging to the sham group received the similar surgery, however no actual ligation in LAD. All animals were fasted overnight with free access to water prior to oral dosing. Aliquots (250 μL) of blood were sampled at 0 (pre-dose), 0.08, 0.25, 0.5, 0.75, 1, 1.5, 2, 4, 6, 8, 12, and 24 h from venous around eye socket into heparinized tubes after a single oral dosing of 8.0 g/kg of QSKL and the collected blood samples were immediately subjected for 4000 rpm centrifugation for 10 min at 4 °C to harvest the plasma samples. Each 100 μL aliquot of plasma sample was transferred into another Eppendorf tube and stored at −80 °C till use.
(§3) When analysis, 300 μL of internal standards (200 ng/mL for either internal standard) fortified ACN, corresponding to three volumes of plasma, was spiked into each thawed plasma sample and mixed thoroughly. Then, the resulting samples were processed as those calibration samples.
(§4) Individual animal plasma concentrations versus time dataset were subjected to a non-compartmental pharmacokinetic analysis using WinNonlin software (ver. 6.4, Pharsight Corp., Sunnyvale, CA, USA). The pharmacokinetic parameters of each analyte including the maximum plasma concentration (Cmax), the time at which Cmax was achieved (Tmax), the terminal elimination half-life (t1/2), and the area under the plasma concentration versus time curve (AUC0→t along with AUC0→∞) were calculated. Moreover, Lz corresponding to the ratio of the dosage and AUC0→∞, as well as mean residence time (MRT) that was defined as the ratio of the area under the first moment curve from time 0 to infinity (AUMC0→∞/AUC0→∞) was also calculated. All results are expressed as mean ± SD. Comparisons regarding the pharmacokinetic parameters were carried out between sham and model groups using Student’s t-test, and p values less than 0.05 were considered to be significant.

[2] = in vivo; conditions: male, Sprague-Dawley, rat, po, 8 g/kg, oral administration of QSKL, plasma, mean ± SD, n = 6; for AUC(0-t): AUC0–t; for AUC(0-inf): AUC0–∞
Protocol: as §1, §2, §3, §4

[3] = male, Sprague-Dawley, rat, plasma, po, 8 g/kg, AUC0–t, model group (MG, myocardial ischemia) rats, oral administration of QSKL, plasma, mean ± SD, n = 6
[4] = male, Sprague-Dawley, rat, plasma, po, 8 g/kg, model group (MG, myocardial ischemia) rats, oral administration of QSKL, plasma, mean ± SD, n = 6
[5] = male, Sprague-Dawley, rat, plasma, po, 8 g/kg, Cmax, model group (MG, myocardial ischemia) rats, oral administration of QSKL, plasma, mean ± SD, n = 6
[6] = male, Sprague-Dawley, rat, plasma, po, 8 g/kg, t1/2, model group (MG, myocardial ischemia) rats, oral administration of QSKL, plasma, mean ± SD, n = 6
[7] = male, Sprague-Dawley, rat, plasma, po, 8 g/kg, AUC0–t, sham group (SG) rats, oral administration of QSKL, plasma, mean ± SD, n = 6
[8] = male, Sprague-Dawley, rat, plasma, po, 8 g/kg, AUC0→t, model (myocardial ischemia, LAD ligation) rats, single oral dose of 8.0 g/kg QSKL, mean ± SD, n = 6
[9] = male, Sprague-Dawley, rat, plasma, po, 8 g/kg, AUC0→t, sham rats, single oral dose of 8.0 g/kg QSKL, mean ± SD, n = 6
[10] = male, Sprague-Dawley, rat, plasma, po, 8 g/kg, Cmax, sham group (SG) rats, oral administration of QSKL, plasma, mean ± SD, n = 6
[11] = male, Sprague-Dawley, rat, plasma, po, 8 g/kg, sham group (SG) rats, oral administration of QSKL, plasma, mean ± SD, n = 6
[12] = rats, after oral dosing QSKL 8.0 g/kg
[13] = QSKL-treated plasma samples, sham and model rats, single oral dose 8.0 g/kg
[14] = male, Sprague-Dawley, rat, plasma, po, 8 g/kg, t1/2, sham group (SG) rats, oral administration of QSKL, plasma, mean ± SD, n = 6
[15] = model group (MG, myocardial ischemia) rats

Row | SMILES | AUC(0-t) [1, 3] | AUC(0-inf) [1, 4] | Cmax [1, 5] | MRT [1, 4] | Tmax [1, 4] | half-life [1, 6] | AUC(0-t) [1, 7] | AUC(0-t) [1, 8] | AUC(0-t) [1, 9] | Cmax [1, 10] | Tmax [1, 11] | shape of plasma concentration-time profile [1, 12] | distribution in rat plasma (quantifiable or not) [1, 13] | AUC(0-inf) [1, 11] | MRT [1, 11] | half-life [1, 14] | other results
1 | C[C@]1(OC(=O)/C=C/c2ccccc2)C[C@@H](O)[C@]2(O)C=CO[C@@H](O[C@@H]3O[C@H](CO)[C@@H](O)[C@H](O)[C@H]3O)[C@@H]21 [harpagoside] | 2.4 ± 2.04 ng·h/mL | 2.2 ± 1.77 ng·h/mL | 1.02 ± 0.692 ng/mL | 18.7 ± 16.7 h | 0.56 ± 0.38 h | 16.1 ± 11.3 h |  |  |  |  |  |  |  |  |  |  | Cmax ([1]; male, Sprague-Dawley, rat, plasma, po, 8 g/kg, Cmax, model (myocardial ischemia, LAD ligation) rats, single oral dose of 8.0 g/kg QSKL, mean ± SD, n = 6): 1.02 ± 0.692 ng/mL; distribution in rat plasma (quantifiable or not) ([1]; plasma of the model group, single oral dose 8.0 g/kg QSKL): always quantifiable; distribution in rat plasma (quantifiable or not) ([1]; samples from the sham group, single oral dose 8.0 g/kg QSKL): lower than its LOQ
2 | CC1(C)[C@@H](O)CC[C@]2(C)[C@H]3C(=O)C=C4[C@@H]5C[C@@](C)(C(=O)O)CC[C@]5(C)CC[C@@]4(C)[C@]3(C)CC[C@@H]12 [glycyrrhetic acid] | 5040 ± 1860 ng·h/mL | 14500 ± 5750 ng·h/mL |  | 41.9 ± 21.5 h | 13.3 ± 8.55 h | 26.3 ± 15.6 h | 3200 ± 298 ng·h/mL | 5040 ± 1860 ng·h/mL | 3200 ± 298 ng·h/mL | 230 ± 57.1 ng/mL | 14 ± 4.9 h | Multiple-peak profiles |  |  |  |  | Cmax ([1]; male, Sprague-Dawley, rat, plasma, po, 8 g/kg, Cmax, sham rats, single oral dose of 8.0 g/kg QSKL, mean ± SD, n = 6): 230 ± 57.1 ng/mL; Tmax ([1]; male, Sprague-Dawley, rat, plasma, po, 8 g/kg, rats, after oral dosing QSKL 8.0 g/kg): > 12 h; Cmax ([1]; model (myocardial ischemia, LAD ligation) rats, single oral dose of 8.0 g/kg QSKL, mean ± SD, n = 6): 376 ± 196 ng/mL; Cmax ([1]; model group (MG, myocardial ischemia) rats, oral administration of QSKL, plasma, mean ± SD, n = 6): 376 ± 196 ng/mL
3 | C[C@@H]1O[C@@H](O[C@@H]2[C@@H](O)[C@H](OCCc3ccc(O)c(O)c3)O[C@H](COC(=O)/C=C/c3ccc(O)c(O)c3)[C@H]2O)[C@H](O)[C@H](O)[C@H]1O [isoacteoside] |  |  |  |  |  |  |  |  |  |  |  |  | unquantifiable in most QSKL-treated samples |  |  |  | 
4 | COc1ccc(-c2coc3cc(O)ccc3c2=O)cc1O [calycosin] | 0.89 ± 0.284 ng·h/mL | 1.04 ± 0.268 ng·h/mL | 0.347 ± 0.197 ng/mL | 15 ± 4.54 h | 0.28 ± 0.24 h | 9.27 ± 3.21 h | 1.03 ± 0.181 ng·h/mL |  |  | 0.3 ± 0.244 ng/mL | 0.33 ± 0.29 h |  | quantifiable in most samples | 3.09 ± 1.95 ng·h/mL | 55.9 ± 34.6 h | 38.2 ± 24.5 h | 
5 | COCC12CN(C)C3C4C(OC)C1C3(C(OC)CC2O)C1CC2(O)C(OC)C(O)C4(O)C1C2OC(=O)c1ccccc1 (stereo not drawn) [benzoylmesaconine] |  |  |  |  |  |  |  |  |  |  |  |  | quantifiable in most samples |  |  |  | AUC(0-t) [2, 15]: 7.34 ± 7.1 ng·h/mL; AUC(0-t) ([2]; sham group (SG) rats): 5.82 ± 2.93 ng·h/mL; AUC(0-inf) [2, 15]: 11.1 ± 11 ng·h/mL; AUC(0-inf) ([2]; sham group (SG) rats): 8.3 ± 6.14 ng·h/mL; Cmax [2, 15]: 3.1 ± 2.49 ng/mL; Cmax ([2]; sham group (SG) rats): 1.15 ± 0.778 ng/mL; MRT [2, 15]: 13.7 ± 6.58 h; MRT ([2]; sham group (SG) rats): 20.1 ± 10.3 h; Tmax [2, 15]: 0.47 ± 0.33 h; Tmax ([2]; sham group (SG) rats): 0.42 ± 0.37 h; half-life ([2]; t1/2, model group (MG, myocardial ischemia) rats): 9.77 ± 5.36 h; half-life ([2]; t1/2, sham group (SG) rats): 13 ± 6.34 h
6 | CC1(C)[C@@H](O[C@H]2O[C@H](C(=O)O)[C@@H](O)[C@H](O)[C@H]2O[C@@H]2O[C@H](C(=O)O)[C@@H](O)[C@H](O)[C@H]2O)CC[C@]2(C)[C@H]3C(=O)C=C4[C@@H]5C[C@@](C)(C(=O)O)CC[C@]5(C)CC[C@@]4(C)[C@]3(C)CC[C@@H]12 [glycyrrhizic acid] | 72.8 ± 27.8 ng·h/mL | 170 ± 69.1 ng·h/mL | 8.87 ± 5.97 ng/mL | 40.2 ± 21.7 h |  | 27.8 ± 14.2 h | 37.9 ± 7.11 ng·h/mL | 72.8 ± 27.8 ng·h/mL | 37.9 ± 7.11 ng·h/mL | 3.34 ± 1.12 ng/mL | 1.46 ± 1.35 h | Multiple-peak profiles | quantifiable in most samples | 130 ± 69.1 ng·h/mL | 63.7 ± 34.4 h | 43.2 ± 25.4 h | 
